From patent publication US20260184710A1, “CASITAS B-LINEAGE LYMPHOMA PROTOONCOGENE B (CBL-B) DEGRADING COMPOUNDS AND ASSOCIATED METHODS OF USE” (Arvinas Operations, Inc., priority 2022, published 2026)

Experiments:
Cbl-b [1] = biological target: T1, Cbl-b (Homo sapiens, UniProt Q13191); assay: Cbl-b Degradation Method B (Nano-Glo HiBiT lytic detection); type: cell-based; details: Cbl-b-HiBit KI Jurkat Cells, incubated at least 6-24 hours; for DC50: half maximal degradation, read-out: Cbl-b Degredation Method B IC50; for Cbl-b Degredation Method B Dmax (%): maximum degradation observed
T1 construct: Cbl-b-HiBit KI Jurkat Cells were purchased from Promega; host or cells: Cbl-b-HiBiT knock-in Jurkat cells
Procedure, shortened: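 An 11-point, 3-fold compound dilution was applied for 6-24 hours to Jurkat cells carrying HiBiT-tagged endogenous Cbl-b. Lytic HiBiT luminescence quantified residual protein. Outputs are DC50 and Dmax relative to DMSO control.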

Cbl-b [2] = biological target: T1, Cbl-b; assay: Cbl-b Degradation Method A (FACS, anti-Cbl-b antibody staining); type: cell-based; details: Cbl-b-HiBit KI Jurkat Cells, incubated at least 20 hours; for DC50: half maximal degradation, read-out: Cbl-b Degredation Method A IC50; for Dmax: Jurkat, maximum degradation observed, read-out: Cbl-b Degredation Method A Dmax (%)
Procedure, shortened: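 Readout is flow cytometry of fixed, permeabilized cells immunostained for Cbl-b (primary 1:200, AF488 secondary). Cells were Cbl-b-HiBit knock-in Jurkat, exposed to compound ≥20 h at 37 °C; half-maximal degradation concentration (DC50) and maximal degradation (Dmax) calculated relative to control.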

T1 sequence (Q13191 whole entry): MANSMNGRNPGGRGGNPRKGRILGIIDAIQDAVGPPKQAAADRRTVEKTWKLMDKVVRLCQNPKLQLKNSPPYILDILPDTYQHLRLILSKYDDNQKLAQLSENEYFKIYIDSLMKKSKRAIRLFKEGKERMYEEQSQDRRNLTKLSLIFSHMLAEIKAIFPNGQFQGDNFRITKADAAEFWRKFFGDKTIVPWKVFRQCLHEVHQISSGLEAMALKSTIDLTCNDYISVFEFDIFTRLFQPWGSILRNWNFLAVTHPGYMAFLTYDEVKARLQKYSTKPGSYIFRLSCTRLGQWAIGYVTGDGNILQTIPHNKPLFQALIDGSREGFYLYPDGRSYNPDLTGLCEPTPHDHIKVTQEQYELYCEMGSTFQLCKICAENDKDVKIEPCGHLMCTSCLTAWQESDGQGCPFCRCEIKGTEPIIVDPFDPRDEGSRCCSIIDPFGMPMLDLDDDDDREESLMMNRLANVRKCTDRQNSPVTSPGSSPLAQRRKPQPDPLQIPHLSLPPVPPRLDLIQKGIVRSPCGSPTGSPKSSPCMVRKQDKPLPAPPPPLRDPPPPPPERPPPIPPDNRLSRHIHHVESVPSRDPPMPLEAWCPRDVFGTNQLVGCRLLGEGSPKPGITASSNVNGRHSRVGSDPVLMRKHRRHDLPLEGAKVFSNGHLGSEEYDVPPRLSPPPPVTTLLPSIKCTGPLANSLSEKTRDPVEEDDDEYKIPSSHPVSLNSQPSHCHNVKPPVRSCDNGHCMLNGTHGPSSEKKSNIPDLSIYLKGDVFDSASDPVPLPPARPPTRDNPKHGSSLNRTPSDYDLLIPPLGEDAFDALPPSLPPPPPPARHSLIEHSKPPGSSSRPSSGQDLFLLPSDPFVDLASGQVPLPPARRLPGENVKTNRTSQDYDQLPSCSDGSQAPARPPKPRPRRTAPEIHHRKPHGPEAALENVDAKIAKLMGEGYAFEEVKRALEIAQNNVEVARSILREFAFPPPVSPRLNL

Structure (SMILES)	DC50 (Cbl-b [1])	Cbl-b Degredation Method B Dmax (%) (Cbl-b [1])	DC50 (Cbl-b [2])	Dmax (Cbl-b [2])
CC(C)n1c(=O)n(C2CCC(=O)NC2=O)c2ccc(N3CCC(O[C@H]4CC[C@H](CN5CCN(Cc6cc7c(c(C(F)(F)F)c6)CN(c6cccc(C8(Cc9nncn9C)CC(C#N)C8)c6)C7=O)C(C)(C)C5)CC4)CC3)c(F)c21 (some centres unmarked) [Example 318, (1r**,3r**)-3-(3-{6-[(2,2-dimethyl-4-{[(1r*,4r*)-4-({1-[1-(2,6-dioxopiperidin-3-yl)-4-fluoro-2-oxo-3-(propan-2-yl)-2,3-dihydro-1H-1,3-benzodiazol-5-yl]piperidin-4-yl}oxy)cyclohexyl]methyl}piperazin-1-yl)methyl]-1-oxo-4-(trifluoromethyl)-2,3-dihydro-1H-isoindol-2-yl}phenyl)-3-[(4-methyl-4H-1,2,4-triazol-3-yl)methyl]cyclobutane-1-carbonitrile]	< 0.005 µM	C (C ≤ 35)	0.05 to 0.5 µM	35 to 70%
CC(C)n1c(=O)n(C2CCC(=O)NC2=O)c2cccc(N3CCC(O[C@H]4CC[C@H](CN5CCC6(CC5)CN(Cc5cc7c(c(C(F)(F)F)c5)CN(c5cccc([C@]8(Cc9nncn9C)C[C@@H](C#N)C8)c5)C7=O)C6)CC4)CC3)c21 (some centres unmarked) [Example 320, (1r,3r)-3-[(4-methyl-4H-1,2,4-triazol-3-yl)methyl]-3-(3-{1-oxo-6-[(7-{[(1r,4r)-4-({1-[1-(2,6-dioxopiperidin-3-yl)-2-oxo-3-(propan-2-yl)-2,3-dihydro-1H-1,3-benzodiazol-4-yl]piperidin-4-yl}oxy)cyclohexyl]methyl}-2,7-diazaspiro[3.5]nonan-2-yl)methyl]-4-(trifluoromethyl)-2,3-dihydro-1H-isoindol-2-yl}phenyl)cyclobutane-1-carbonitrile]	< 0.005 µM	C (C ≤ 35)	0.05 to 0.5 µM	> 70%
CC(C)n1c(=O)n(C2CCC(=O)NC2=O)c2cccc(N3CCC(O[C@H]4CC[C@H](CN5CC6(CCN(Cc7cc8c(c(C(F)(F)F)c7)CN(c7cccc([C@]9(Cc%10nncn%10C)C[C@@H](C#N)C9)c7)C8=O)CC6)C5)CC4)CC3)c21 (some centres unmarked) [Example 321, (1r,3r)-3-[(4-methyl-4H-1,2,4-triazol-3-yl)methyl]-3-(3-{1-oxo-6-[(2-{[(1r,4r)-4-({1-[1-(2,6-dioxopiperidin-3-yl)-2-oxo-3-(propan-2-yl)-2,3-dihydro-1H-1,3-benzodiazol-4-yl]piperidin-4-yl}oxy)cyclohexyl]methyl}-2,7-diazaspiro[3.5]nonan-7-yl)methyl]-4-(trifluoromethyl)-2,3-dihydro-1H-isoindol-2-yl}phenyl)cyclobutane-1-carbonitrile]	< 0.005 µM	C (C ≤ 35)	0.005 to 0.05 µM	< 35%
CC(C)n1c(=O)n(C2CCC(=O)NC2=O)c2cccc(N3CCC(O[C@H]4CC[C@H](CN5CCN(Cc6cc7c(c(C(F)(F)F)c6)CN(c6cccc([C@]8(Cc9nncn9C)C[C@@H](C#N)C8)c6)C7=O)C6(COC6)C5)CC4)CC3)c21 (some centres unmarked) [Example 322, (1r,3r)-3-[(4-methyl-4H-1,2,4-triazol-3-yl)methyl]-3-(3-{1-oxo-6-[(8-{[(1r,4r)-4-({1-[1-(2,6-dioxopiperidin-3-yl)-2-oxo-3-(propan-2-yl)-2,3-dihydro-1H-1,3-benzodiazol-4-yl]piperidin-4-yl}oxy)cyclohexyl]methyl}-2-oxa-5,8-diazaspiro[3.5]nonan-5-yl)methyl]-4-(trifluoromethyl)-2,3-dihydro-1H-isoindol-2-yl}phenyl)cyclobutane-1-carbonitrile]	0.005 to 0.05 µM	C (C ≤ 35)	0.05 to 0.5 µM	> 70%

Now from value to molecule:

DC50 (Cbl-b [1])	Cbl-b Degredation Method B Dmax (%) (Cbl-b [1])	DC50 (Cbl-b [2])	Dmax (Cbl-b [2])	Structure (SMILES)
< 0.005 µM	C (C ≤ 35)	0.005 to 0.05 µM	35 to 70%	CC(C)n1c(=O)n(C2CCC(=O)NC2=O)c2cccc(N3CCC(O[C@H]4CC[C@H](CN5CCN(Cc6cc7c(c(C(F)(F)F)c6)CN(c6cccc([C@]8(Cc9nncn9C)C[C@@H](C#N)C8)c6)C7=O)CC[C@H]5C)CC4)CC3)c21 (stereo partly drawn) [Example 323, (1r,3r)-3-[3-(6-{[(5R)-5-methyl-4-{[(1r,4r)-4-({1-[1-(2,6-dioxopiperidin-3-yl)-2-oxo-3-(propan-2-yl)-2,3-dihydro-1H-1,3-benzodiazol-4-yl]piperidin-4-yl}oxy)cyclohexyl]methyl}-1,4-diazepan-1-yl]methyl}-1-oxo-4-(trifluoromethyl)-2,3-dihydro-1H-isoindol-2-yl)phenyl]-3-[(4-methyl-4H-1,2,4-triazol-3-yl)methyl]cyclobutane-1-carbonitrile]
< 0.005 µM	C (C ≤ 35)	0.005 to 0.05 µM	35 to 70%	Cn1cnnc1C[C@]1(c2cccc(N3Cc4c(cc(CN5CCN(C[C@H]6CC[C@H](OC7CCN(c8cccc9c8n(C(F)F)c(=O)n9C8CCC(=O)NC8=O)CC7)CC6)CC5(C)C)cc4C(F)(F)F)C3=O)c2)C[C@H](C#N)C1 (some centres unmarked) [Example 324, (1r,3r)-3-(3-{6-[(2,2-dimethyl-4-{[(1r,4r)-4-({1-[3-(difluoromethyl)-1-(2,6-dioxopiperidin-3-yl)-2-oxo-2,3-dihydro-1H-1,3-benzodiazol-4-yl]piperidin-4-yl}oxy)cyclohexyl]methyl}piperazin-1-yl)methyl]-1-oxo-4-(trifluoromethyl)-2,3-dihydro-1H-isoindol-2-yl}phenyl)-3-[(4-methyl-4H-1,2,4-triazol-3-yl)methyl]cyclobutane-1-carbonitrile]
0.005 to 0.05 µM	C (C ≤ 35)	0.05 to 0.5 µM	35 to 70%	Cn1cnnc1C[C@]1(c2cccc(N3Cc4c(cc(CN5CCN(C[C@H]6CC[C@H](OC7CCN(c8cccc9c8nc(OC(F)F)n9C8CCC(=O)NC8=O)CC7)CC6)CC5(C)C)cc4C(F)(F)F)C3=O)c2)C[C@H](C#N)C1 (some centres unmarked) [Example 325, (1r,3r)-3-(3-{6-[(2,2-dimethyl-4-{[(1r,4r)-4-({1-[2-(difluoromethoxy)-1-(2,6-dioxopiperidin-3-yl)-1H-1,3-benzodiazol-4-yl]piperidin-4-yl}oxy)cyclohexyl]methyl}piperazin-1-yl)methyl]-1-oxo-4-(trifluoromethyl)-2,3-dihydro-1H-isoindol-2-yl}phenyl)-3-[(4-methyl-4H-1,2,4-triazol-3-yl)methyl]cyclobutane-1-carbonitrile]
< 0.005 µM	C (C ≤ 35)	0.05 to 0.5 µM	35 to 70%	CC(C)n1c(=O)n(C2CCC(=O)NC2=O)c2cccc(N3CCC(O[C@H]4CC[C@H](CN5CCN(Cc6cc7c(c(C(F)(F)F)c6)CN(c6cccc([C@]8(Cc9nncn9C)C[C@H](C#N)C8)c6)C7=O)CC[C@@H]5C)CC4)CC3)c21 (stereo partly drawn) [Example 326, (1r,3r)-3-[3-(6-{[(5S)-5-methyl-4-{[(1r,4r)-4-({1-[1-(2,6-dioxopiperidin-3-yl)-2-oxo-3-(propan-2-yl)-2,3-dihydro-1H-1,3-benzodiazol-4-yl]piperidin-4-yl}oxy)cyclohexyl]methyl}-1,4-diazepan-1-yl]methyl}-1-oxo-4-(trifluoromethyl)-2,3-dihydro-1H-isoindol-2-yl)phenyl]-3-[(4-methyl-4H-1,2,4-triazol-3-yl)methyl]cyclobutane-1-carbonitrile]
